From paper PMC4744035, “In Vivo, In Vitro, and In Silico Characterization of Peptoids as Antimicrobial Agents” (PLoS ONE, 2016)
≈ marks a conversion by molar mass, not a printed value. Numbered stars: 1 amine (or outer) side, 2 acyl side, 3 side chain; on linkers, the order of the positions; unused ones are H or OH. Square brackets hold non-standard residues; d marks the D form. Peptide text beside a SMILES is read from it. X1 = CC(C)[C@H](C)N(CC(=O)[*:2])[*:1]; Nspe = C[C@H](NCC(=O)O)c1ccccc1; Nlys = NCCCCNCC(=O)O

Assays:
E. coli ATCC 35218 = format: cell-based
Procedure: MICs against B. subtilis and E. coli screening bacterial strains were determined using serial dilution in 96-well microtiter plates in accordance with CLSI M7-A6 protocols. Briefly, peptoid solution in cation-adjusted Mueller-Hinton broth was prepared by 2:1 serial dilution with a total volume of 50 µL per well. In experimental wells, 50 µL of bacterial inoculums (1 x 10^6 CFU/mL) were added to the peptoid solutions. Positive controls consisted of 50 µL inoculums added to 50 µL cation-adjusted Mueller-Hinton broth containing no peptoid, while negative controls contained only cation-adjusted Mueller-Hinton broth. […] Experiments were reproducible among three independent replicates, each consisting of two parallel trials.

erythrocytes = test: Hemolytic activity (HD10/HD50); format: cell-based
Excerpt: Table 1 Characteristics of antimicrobial peptoids, screened for activity against B. subtilis and E. coli bacterial strains. | column: HD10 / HD50

NIH 3T3 cells = test: Metabolic activity, MTS assay; format: cell-based, mouse
Procedure: NIH 3T3 mouse fibroblast cells were cultured in complete Dulbecco’s Modified Eagle’s Media. A peptoid solution plate (100 µL per well) was prepared by serial dilution of aqueous peptoid stock solutions in Hank’s balanced salt solution. A day-old cell monolayer was washed thoroughly with Hank’s balanced salt solution and replenished with 100 µL Hank’s balanced salt solution per well. Peptoid solutions were transferred onto the day-old cell monolayers, which contained approximately 5000 cells per well. […] The average of six replicate trials is reported.

[1] = system: E. cloacae 218R Class C β-lactamase; test: microbe, parasite or virus in culture; conditions: 218R Class C β-lactamase
Procedure: (§1) The MICs of test agents were measured using a modified broth micro-dilution method in Difco Mueller Hinton medium, on a panel of bacterial pathogens that were both susceptible and resistant to common antibiotics (S1 File). Briefly, serial dilutions were performed in 0.01% acetic acid containing 0.2% bovine serum albumin at 10-fold the desired final concentration. Ten μL of the 10-fold concentrated test reagents were added to each well of a 96-well polypropylene microtitre plate containing 90 μL of Mueller Hinton media per well. Bacteria were added to the plate from an overnight culture at a final concentration of 2–7 x 10^5 CFU/mL and incubated overnight at 37°C. The MIC is defined as the concentration at which no growth was observed.
(§2) Screening of peptoid antimicrobial activity against a panel of multidrug resistant superbugs was done according to the protocol described in the manuscript. The bacterial strains used in this panel included; P. aeruginosa PAO1 strain H103 [1], P. maltophilia ATCC#13637, S. aureus ATCC#25923 [1], E. faecalis ATCC#29212 [2], and E. cloacae 218R, constitutively expressing Class C chromosomal β-lactamase, were from the Hancock lab strains collection. An MRSA clinical isolate was kindly provided by Anthony Chow (Vancouver General Hospital, Vancouver, Canada). Two Klebsiella pneumoniae and two E. coli clinical isolates expressing extended spectrum β-lactamases (ESBL) were kindly provided by George Zhanel (Health Sciences Centre, Winnipeg, Canada). Vancomycin-resistant clinical isolates of Enterococcus faecalis and E. faecium were obtained from Ana M. Paccagnella (BC Centre for Disease Control, Vancouver, Canada). Three clinical isolates (#9, #198 and #213) of multi-drug resistant P. aeruginosa, were kindly provided by Carlos Kiffer (University of São Paulo, Brazil). […] Three P. aeruginosa clinical isolates of the Liverpool epidemic strain (LES) (H1027, H1030 and LES400) were all kindly provided by Craig Winstanley (University of Liverpool, UK). […] All tested bacterial strains were categorized as biohazard level 2 pathogens.

E. coli 63103 (ESBL) = test: microbe, parasite or virus in culture; conditions: 63103 (ESBL)
Procedure: as §1, §2

E. coli 64771 (ESBL) = test: microbe, parasite or virus in culture; conditions: 64771 (ESBL)
Procedure: as §1, §2

E. faecalis ATCC29212 = test: microbe, parasite or virus in culture; conditions: ATCC29212
Procedure: as §1, §2

E. faecalis F43559 (VRE) = test: microbe, parasite or virus in culture; conditions: F43559 (VRE)
Procedure: as §1, §2

E. faecalis W61950 (VRE) = test: microbe, parasite or virus in culture; conditions: W61950 (VRE)
Procedure: as §1, §2

E. faecium T62764 (VRE) = test: microbe, parasite or virus in culture; conditions: T62764 (VRE)
Procedure: as §1, §2

E. faecium mic80 (VRE) = test: microbe, parasite or virus in culture; conditions: mic80 (VRE)
Procedure: as §1, §2

[2] = system: K. pneumonia 61962 (ESBL); test: microbe, parasite or virus in culture
Procedure: as §1, §2

[3] = system: K. pneumonia 63575 (ESBL); test: microbe, parasite or virus in culture
Procedure: as §1, §2

P. aeruginosa 198 (MDR) = test: microbe, parasite or virus in culture; conditions: 198 (MDR)
Procedure: as §1, §2

P. aeruginosa 213 (MDR) = test: microbe, parasite or virus in culture; conditions: 213 (MDR)
Procedure: as §1, §2

P. aeruginosa 9 (MDR) = test: microbe, parasite or virus in culture; conditions: 9 (MDR)
Procedure: as §1, §2

[4] = system: P. aeruginosa H1027 (MDR); test: microbe, parasite or virus in culture; conditions: H1027 (MDR)
Procedure: as §1, §2

[5] = system: P. aeruginosa H103 (wild type); test: microbe, parasite or virus in culture; conditions: H103 (wild type)
Procedure: as §1, §2

[6] = system: P. aeruginosa H1030 (MDR); test: microbe, parasite or virus in culture; conditions: P. aeruginosa H1030 (MDR)
Procedure: as §1, §2

[7] = system: P. aeruginosa LES400 (MDR); test: microbe, parasite or virus in culture; conditions: LES400 (MDR)
Procedure: as §1, §2

P. maltophilia ATCC13637 = test: microbe, parasite or virus in culture; conditions: ATCC13637
Procedure: as §1, §2

S. aureus ATCC25923 = test: microbe, parasite or virus in culture; conditions: ATCC25923
Procedure: as §1, §2

S. aureus C623 (MRSA) = test: microbe, parasite or virus in culture; conditions: C623
Procedure: as §1, §2

| Structure (SMILES) | MIC E. coli (E. coli ATCC 35218) | HD10 (hemolytic activity) (erythrocytes) | HD50 (hemolytic activity) (erythrocytes) | ID50 (inhibitory dose, metabolic activity) (NIH 3T3 cells) | MIC [1] | MIC (E. coli 63103 (ESBL)) | MIC (E. coli 64771 (ESBL)) | MIC (E. faecalis ATCC29212) | MIC (E. faecalis F43559 (VRE)) | MIC (E. faecalis W61950 (VRE)) | MIC (E. faecium T62764 (VRE)) | MIC (E. faecium mic80 (VRE)) | MIC [2] | MIC [3] | MIC (P. aeruginosa 198 (MDR)) | MIC (P. aeruginosa 213 (MDR)) | MIC (P. aeruginosa 9 (MDR)) | MIC [4] | MIC [5] | MIC [7] | also measured |
| --- | --- | --- | --- | --- | --- | --- | --- | --- | --- | --- | --- | --- | --- | --- | --- | --- | --- | --- | --- | --- | --- |
| C[C@@H](c1ccccc1)N(CC(N)=O)C(=O)CN(CCCCN)C(=O)CN(CCCCN)C(=O)CN(C(=O)CN(C(=O)CN(CCCCN)C(=O)CN(C(=O)CN(CCCCN)C(=O)CN(CCCCN)C(=O)CN(C(=O)CN(C(=O)CNCCCCN)[C@@H](C)c1ccccc1)[C@@H](C)c1ccccc1)[C@@H](C)c1ccccc1)[C@@H](C)c1ccccc1)[C@@H](C)c1ccccc1 [1-NLys5,11, H-(NLys-Nspe-Nspe-NLys-NLys-Nspe)2-NH2] (H-[Nlys][Nspe][Nspe][Nlys][Nlys][Nspe][Nlys][Nspe][Nspe][Nlys][Nlys][Nspe]-NH2) | 50 µM (≈ 87.7 µg/mL) | >100 / >100 | >100 / >100 | 85 µM | 32 µg/mL (≈ 18.3 µM) | 128 µg/mL (≈ 73 µM) | 32 µg/mL (≈ 18.3 µM) | 256 µg/mL (≈ 146 µM) | 256 µg/mL (≈ 146 µM) | 256 µg/mL (≈ 146 µM) | 8 µg/mL (≈ 4.56 µM) | 16 µg/mL (≈ 9.13 µM) | 256 µg/mL (≈ 146 µM) | 128 µg/mL (≈ 73 µM) | 8 µg/mL (≈ 4.56 µM) | 8 µg/mL (≈ 4.56 µM) | 64 µg/mL (≈ 36.5 µM) | 0.13 µg/mL (≈ 0.0741 µM) | 2 µg/mL (≈ 1.14 µM) | 8 µg/mL (≈ 4.56 µM) | MIC [6]: 64 µg/mL (≈ 36.5 µM); MIC (P. maltophilia ATCC13637): 0.5 µg/mL (≈ 0.285 µM); MIC (S. aureus ATCC25923): 64 µg/mL (≈ 36.5 µM); MIC (S. aureus C623 (MRSA)): 64 µg/mL (≈ 36.5 µM) |
| CC(C)[C@H](C)N(CC(=O)N(CCCCN)CC(=O)N(CC(=O)N(CC(=O)N(CCCCN)CC(=O)N(CC(=O)N(CC(=O)N(CCCCN)CC(=O)N(CC(=O)N(CC(N)=O)[C@@H](C)c1ccccc1)[C@@H](C)c1ccccc1)[C@@H](C)C(C)C)[C@@H](C)C(C)C)[C@@H](C)c1ccccc1)[C@@H](C)c1ccccc1)C(=O)CN(C(=O)CNCCCCN)[C@@H](C)C(C)C [1-Nsdp2,3,8,9, H-(NLys-Nsdp-Nsdp-NLys-Nspe-Nspe)2-NH2] (H-[Nlys][X1][X1][Nlys][Nspe][Nspe][Nlys][X1][X1][Nlys][Nspe][Nspe]-NH2) | 12.5 µM (≈ 21 µg/mL) | 77 | > 200 | 19 µM | 8 µg/mL (≈ 4.75 µM) | 16 µg/mL (≈ 9.51 µM) | 8 µg/mL (≈ 4.75 µM) | 4 µg/mL (≈ 2.38 µM) | 16 µg/mL (≈ 9.51 µM) | 16 µg/mL (≈ 9.51 µM) | 1 µg/mL (≈ 0.594 µM) | 4 µg/mL (≈ 2.38 µM) | 32 µg/mL (≈ 19 µM) | 32 µg/mL (≈ 19 µM) | 32 µg/mL (≈ 19 µM) | 8 µg/mL (≈ 4.75 µM) | 256 µg/mL (≈ 152 µM) | 2 µg/mL (≈ 1.19 µM) | 8 µg/mL (≈ 4.75 µM) | 8 µg/mL (≈ 4.75 µM) | MIC [6]: 8 µg/mL (≈ 4.75 µM); MIC (P. maltophilia ATCC13637): 1 µg/mL (≈ 0.594 µM); MIC (S. aureus ATCC25923): 4 µg/mL (≈ 2.38 µM); MIC (S. aureus C623 (MRSA)): 4 µg/mL (≈ 2.38 µM) |
| C[C@H](NCC(=O)N(CCCCN)CC(=O)N(CC(=O)N(CCCCN)CC(=O)N(CCCCN)CC(=O)N(CC(=O)N(CC(=O)N(CCCCN)CC(=O)N(CC(=O)N(CCCCN)CC(=O)N(CCCCN)CC(=O)N(CC(N)=O)[C@@H](C)c1ccccc1)[C@@H](C)c1ccccc1)[C@@H](C)c1ccccc1)[C@@H](C)c1ccccc1)[C@@H](C)c1ccccc1)c1ccccc1 [1B-NLys4,10, H-(Nspe-NLys-Nspe-NLys-NLys-Nspe)2-NH2] (H-[Nspe][Nlys][Nspe][Nlys][Nlys][Nspe][Nspe][Nlys][Nspe][Nlys][Nlys][Nspe]-NH2) | 50 µM (≈ 87.7 µg/mL) | >200 / >200 | >200 / >200 | 83 µM | 32 µg/mL (≈ 18.3 µM) | 128 µg/mL (≈ 73 µM) | 32 µg/mL (≈ 18.3 µM) | 256 µg/mL (≈ 146 µM) | 256 µg/mL (≈ 146 µM) | 256 µg/mL (≈ 146 µM) | 16 µg/mL (≈ 9.13 µM) | 32 µg/mL (≈ 18.3 µM) | 256 µg/mL (≈ 146 µM) | 128 µg/mL (≈ 73 µM) | 32 µg/mL (≈ 18.3 µM) | 16 µg/mL (≈ 9.13 µM) | 128 µg/mL (≈ 73 µM) | 0.25 µg/mL (≈ 0.143 µM) | 4 µg/mL (≈ 2.28 µM) | 16 µg/mL (≈ 9.13 µM) | MIC (P. maltophilia ATCC13637): 0.25 µg/mL (≈ 0.143 µM); MIC (S. aureus ATCC25923): 256 µg/mL (≈ 146 µM); MIC (S. aureus C623 (MRSA)): 256 µg/mL (≈ 146 µM) |
| C[C@@H](c1ccccc1)N(CC(N)=O)C(=O)CN(C(=O)CN(CCCCN)C(=O)CN(C(=O)CN(C(=O)CN(CCCCN)C(=O)[C@@H]1CCCN1C(=O)CN(C(=O)CN(CCCCN)C(=O)CN(C(=O)CN(C(=O)CNCCCCN)[C@@H](C)c1ccccc1)[C@@H](C)c1ccccc1)[C@@H](C)c1ccccc1)[C@@H](C)c1ccccc1)[C@@H](C)c1ccccc1)[C@@H](C)c1ccccc1 [Peptoid 1-Pro6, H-NLys-Nspe2-NLys-Nspe-L-Pro-(NLys-Nspe2)2-NH2] (H-[Nlys][Nspe][Nspe][Nlys][Nspe]P[Nlys][Nspe][Nspe][Nlys][Nspe][Nspe]-NH2) | 12.5 µM (≈ 21.9 µg/mL) | 83 | > 200 | 18 µM | 16 µg/mL (≈ 9.12 µM) | 16 µg/mL (≈ 9.12 µM) | 8 µg/mL (≈ 4.56 µM) | 8 µg/mL (≈ 4.56 µM) | 8 µg/mL (≈ 4.56 µM) | 32 µg/mL (≈ 18.2 µM) | 1 µg/mL (≈ 0.57 µM) | 8 µg/mL (≈ 4.56 µM) | 64 µg/mL (≈ 36.5 µM) | 32 µg/mL (≈ 18.2 µM) | 16 µg/mL (≈ 9.12 µM) | 16 µg/mL (≈ 9.12 µM) | 256 µg/mL (≈ 146 µM) | 4 µg/mL (≈ 2.28 µM) | 8 µg/mL (≈ 4.56 µM) | 8 µg/mL (≈ 4.56 µM) | MIC [6]: 16 µg/mL (≈ 9.12 µM); MIC (P. maltophilia ATCC13637): 2 µg/mL (≈ 1.14 µM); MIC (S. aureus ATCC25923): 4 µg/mL (≈ 2.28 µM); MIC (S. aureus C623 (MRSA)): 8 µg/mL (≈ 4.56 µM) |
